Test: Absorbance of nanoparticles in the near-infrared region (UV-vis spectrometer)
Assay type: physicochemical
Conditions: control solutions without DOPA-metal complex
Protocol: Absorbances in the near-infrared region of the FeMAP NPs and VMAP NPs prepared in Example 1-3 were analyzed through a UV-vis spectrometer, and the analysis results are shown in FIG. 4.

Compound	absorbance, absorption spectrum 500 nm to 900 nm
[Cl][V]([Cl])[Cl] [VCl3]	almost no absorbance
[Cl][Fe]([Cl])[Cl] [FeCl3]	almost no absorbance

From patent US12171886B2, “Mussel adhesive protein-based photothermal agent and photothermal-responsive adhesive nanoparticles” (POSTECH RESEARCH AND BUSINESS DEVELOPMENT FOUNDATION, priority 2018, dated 2024)
